Data: ChEMBL document CHEMBL5543097, “Synthesis and structure-activity relationships of novel 14-membered 2-fluoro ketolides with structural modification at the C11 position” (Eur J Med Chem, 2024)
In brackets after ≈: the same amount, converted by molar mass. Activity calls are given as the source filed them. The rule behind the calls is not given here.

Legend:
Moraxella catarrhalis [1] = assay: Antibacterial activity against Moraxella catarrhalis BCA 19-6 assessed as inhibition of bacterial growth incubated for 24 hrs by CLSI based broth microdilution method; format: functional; conditions: Moraxella catarrhalis, BCA 19-6, 24 h, read-out: MIC
Haemophilus influenzae [2] = assay: Antibacterial activity against Haemophilus influenzae HIN 19-15 assessed as inhibition of bacterial growth incubated for 20 to 24 hrs by CLSI based broth microdilution method; format: functional; conditions: time 20-24 hrs
[3] = test system: Staphylococcus epidermidis; assay: Antibacterial activity against erythromycin-resistant Staphylococcus epidermidis 19-8 assessed as inhibition of visible bacterial growth incubated for 18 hrs by broth microdilution method; format: functional
[4] = test system: Staphylococcus epidermidis; assay: Antibacterial activity against erythromycin-resistant Staphylococcus epidermidis 19-5 assessed as inhibition of visible bacterial growth incubated for 18 hrs by broth microdilution method; format: functional
[5] = test system: Staphylococcus epidermidis; assay: Antibacterial activity against erythromycin-resistant Staphylococcus epidermidis 19-6 assessed as inhibition of visible bacterial growth incubated for 18 hrs by broth microdilution method; format: functional
Streptococcus agalactiae [6] = assay: Antibacterial activity against erythromycin-resistant Streptococcus agalactiae 19-9 assessed as inhibition of visible bacterial growth incubated for 18 hrs by broth microdilution method; format: functional
Streptococcus pneumoniae [7] = assay: Antibacterial activity against erythromycin-resistant Streptococcus pneumoniae SPN19-14 assessed as inhibition of visible bacterial growth incubated for 18 hrs by broth microdilution method; format: functional
[8] = test system: Staphylococcus epidermidis; assay: Antibacterial activity against erythromycin-resistant Staphylococcus epidermidis 19-11 assessed as inhibition of visible bacterial growth incubated for 18 hrs by broth microdilution method; format: functional
Streptococcus pyogenes = assay: Antibacterial activity against erythromycin-resistant Streptococcus pyogenes ATCC 19615 assessed as inhibition of visible bacterial growth incubated for 18 hrs by broth microdilution method; format: functional
[9] = test system: Staphylococcus epidermidis; assay: Antibacterial activity against erythromycin-resistant Staphylococcus epidermidis 19-9 assessed as inhibition of visible bacterial growth incubated for 18 hrs by broth microdilution method; format: functional
Staphylococcus aureus = assay: Antibacterial activity against Staphylococcus aureus ATCC 700699 assessed as inhibition of visible bacterial growth; format: functional
Streptococcus pneumoniae [10] = assay: Antibacterial activity against erythromycin-resistant Streptococcus pneumoniae SPN19-8 assessed as inhibition of visible bacterial growth incubated for 18 hrs by broth microdilution method; format: functional
Moraxella catarrhalis [11] = assay: Antibacterial activity against Moraxella catarrhalis BCA 19-5 assessed as inhibition of bacterial growth incubated for 24 hrs by CLSI based broth microdilution method; format: functional; conditions: Moraxella catarrhalis, BCA 19-5, 24 h, read-out: MIC
Streptococcus pneumoniae [12] = assay: Antibacterial activity against erythromycin-resistant Streptococcus pneumoniae SPN19-13 assessed as inhibition of visible bacterial growth incubated for 18 hrs by broth microdilution method; format: functional
[13] = Cytotoxicity against mouse AML12 cells assessed as reduction in cell viability incubated for 48 hrs by MTT assay; format: toxicity, cell-based
Enterococcus faecium = assay: Antibacterial activity against vancomycin-resistant Enterococcus faecium assessed as inhibition of visible bacterial growth; format: functional
Moraxella catarrhalis [14] = assay: Antibacterial activity against Moraxella catarrhalis BCA 19-31 assessed as inhibition of bacterial growth incubated for 24 hrs by CLSI based broth microdilution method; format: functional; conditions: BCA 19-31, 24 h
[15] = test system: Staphylococcus epidermidis; assay: Antibacterial activity against erythromycin-resistant Staphylococcus epidermidis 19-4 assessed as inhibition of visible bacterial growth incubated for 18 hrs by broth microdilution method; format: functional
Streptococcus agalactiae [16] = assay: Antibacterial activity against erythromycin-resistant Streptococcus agalactiae 19-8 assessed as inhibition of visible bacterial growth incubated for 18 hrs by broth microdilution method; format: functional
Haemophilus influenzae [17] = assay: Antibacterial activity against Haemophilus influenzae HIN 19-18 assessed as inhibition of bacterial growth incubated for 20 to 24 hrs by CLSI based broth microdilution method; format: functional; conditions: HIN 19-18, time 20-24 hrs
Streptococcus pneumoniae [18] = assay: Potency index, ratio of telithromycin MIC to test compound MIC for antibacterial activity against Streptococcus pneumoniae SPN19-13 assessed as inhibition of visible bacterial growth incubated for 18 hrs by broth microdilution method; format: functional
[19] = test system: Staphylococcus epidermidis; assay: Potency index, ratio of telithromycin MIC to test compound MIC for antibacterial activity against erythromycin-resistant Staphylococcus epidermidis 19-11 assessed as inhibition of visible bacterial growth incubated for 18 hrs by broth microdilution method; format: functional
[20] = test system: Staphylococcus epidermidis; assay: Potency index, ratio of telithromycin MIC to test compound MIC for antibacterial activity against erythromycin-resistant Staphylococcus epidermidis 19-5 assessed as inhibition of visible bacterial growth incubated for 18 hrs by broth microdilution method; format: functional
[21] = test system: Staphylococcus epidermidis; assay: Potency index, ratio of telithromycin MIC to test compound MIC for antibacterial activity against erythromycin-resistant Staphylococcus epidermidis 19-9 assessed as inhibition of visible bacterial growth incubated for 18 hrs by broth microdilution method; format: functional
[22] = test system: Staphylococcus epidermidis; assay: Potency index, ratio of telithromycin MIC to test compound MIC for antibacterial activity against erythromycin-resistant Staphylococcus epidermidis 19-8 assessed as inhibition of visible bacterial growth incubated for 18 hrs by broth microdilution method; format: functional
[23] = test system: Staphylococcus epidermidis; assay: Potency index, ratio of telithromycin MIC to test compound MIC for antibacterial activity against erythromycin-resistant Staphylococcus epidermidis 19-4 assessed as inhibition of visible bacterial growth incubated for 18 hrs by broth microdilution method; format: functional
Escherichia coli = assay: Antibacterial activity against Escherichia coli ATCC 35218 assessed as inhibition of visible bacterial growth; format: functional, organism-based
Streptococcus pneumoniae [24] = assay: Potency index, ratio of telithromycin MIC to test compound MIC for antibacterial activity against Streptococcus pneumoniae SPN19-8 assessed as inhibition of visible bacterial growth incubated for 18 hrs by broth microdilution method; format: functional
[25] = test system: Staphylococcus epidermidis; assay: Potency index, ratio of telithromycin MIC to test compound MIC for antibacterial activity against erythromycin-resistant Staphylococcus epidermidis 19-6 assessed as inhibition of visible bacterial growth incubated for 18 hrs by broth microdilution method; format: functional
Streptococcus pneumoniae [26] = assay: Potency index, ratio of telithromycin MIC to test compound MIC for antibacterial activity against Streptococcus pneumoniae SPN19-14 assessed as inhibition of visible bacterial growth incubated for 18 hrs by broth microdilution method; format: functional

Row | SMILES | MIC (Moraxella catarrhalis [1]) | MIC (Haemophilus influenzae [2]) | MIC [3] | MIC [4] | MIC [5] | MIC (Streptococcus agalactiae [6]) | MIC (Streptococcus pneumoniae [7]) | MIC [8] | MIC (Streptococcus pyogenes) | MIC [9] | MIC (Staphylococcus aureus) | MIC (Streptococcus pneumoniae [10]) | MIC (Moraxella catarrhalis [11]) | MIC (Streptococcus pneumoniae [12]) | CC50 at 48 h [13] | MIC (Enterococcus faecium) | MIC (Moraxella catarrhalis [14]) | MIC [15] | MIC (Streptococcus agalactiae [16]) | MIC (Haemophilus influenzae [17]) | also measured
1 | CC[C@H]1OC(=O)[C@@](C)(F)C(=O)[C@H](C)[C@@H](O[C@@H]2O[C@H](C)C[C@H](N(C)C)[C@H]2O)[C@](C)(OC)C[C@@H](C)C(=O)[C@H](C)[C@H]2N(CCCOC(=O)Nc3ccc(C(F)(F)F)cc3)C(=O)O[C@]12C | 0.125 µg/mL (≈ 0.143 µM) | 4 µg/mL (≈ 4.57 µM) | 0.06 µg/mL (≈ 0.0685 µM) | < 0.03 µg/mL | 0.125 µg/mL (≈ 0.143 µM) | 1 µg/mL (≈ 1.14 µM) | 0.125 µg/mL (≈ 0.143 µM) | < 0.03 µg/mL | < 0.03 µg/mL | 0.25 µg/mL (≈ 0.285 µM) | 16 µg/mL (≈ 18.3 µM) | 0.125 µg/mL (≈ 0.143 µM) | 0.125 µg/mL (≈ 0.143 µM) | 0.125 µg/mL (≈ 0.143 µM) | 19.6 µM | 16 µg/mL (≈ 18.3 µM) | 0.06 µg/mL (≈ 0.0685 µM) | 0.03 µg/mL (≈ 0.0342 µM) | – | – | –
2 | CC[C@H]1OC(=O)[C@H](C)C(=O)[C@H](C)[C@@H](O[C@@H]2O[C@H](C)C[C@H](N(C)C)[C@H]2O)[C@](C)(OC)C[C@@H](C)C(=O)[C@H](C)[C@H]2N(CCCCn3cnc(-c4cccnc4)c3)C(=O)O[C@]12C [TELITHROMYCIN] | 0.25 µg/mL (≈ 0.308 µM) | 4 µg/mL (≈ 4.93 µM) | > 64 µg/mL | 0.25 µg/mL (≈ 0.308 µM) | 64 µg/mL (≈ 78.8 µM) | 0.125 µg/mL (≈ 0.154 µM) | 0.25 µg/mL (≈ 0.308 µM) | 0.25 µg/mL (≈ 0.308 µM) | < 0.03 µg/mL | 0.5 µg/mL (≈ 0.616 µM) | 16 µg/mL (≈ 19.7 µM) | 0.5 µg/mL (≈ 0.616 µM) | 0.25 µg/mL (≈ 0.308 µM) | 0.25 µg/mL (≈ 0.308 µM) | > 100 µM | – | 0.25 µg/mL (≈ 0.308 µM) | > 64 µg/mL | < 0.03 µg/mL | 4 µg/mL (≈ 4.93 µM) | –
3 | CC[C@H]1OC(=O)[C@@](C)(F)C(=O)[C@H](C)[C@@H](O[C@@H]2O[C@H](C)C[C@H](N(C)C)[C@H]2O)[C@](C)(OC)C[C@@H](C)C(=O)[C@H](C)[C@H]2N(CCCOC(=O)Nc3cccc4ccccc34)C(=O)O[C@]12C | < 0.03 µg/mL | 4 µg/mL (≈ 4.66 µM) | < 0.03 µg/mL | < 0.03 µg/mL | < 0.03 µg/mL | < 0.03 µg/mL | < 0.03 µg/mL | < 0.03 µg/mL | < 0.03 µg/mL | 0.125 µg/mL (≈ 0.146 µM) | – | < 0.03 µg/mL | < 0.03 µg/mL | < 0.03 µg/mL | 29.4 µM | 16 µg/mL (≈ 18.6 µM) | < 0.03 µg/mL | < 0.03 µg/mL | < 0.03 µg/mL | 4 µg/mL (≈ 4.66 µM) | Ratio (Streptococcus pneumoniae [18]): <4; Ratio [19]: 4; Ratio [20]: 4; Ratio [21]: 4; Ratio [22]: 4; Ratio [23]: 4; Activity (Escherichia coli): Active; Ratio (Streptococcus pneumoniae [24]): <4; Ratio [25]: 4; Ratio (Streptococcus pneumoniae [26]): <4
4 | CC[C@H]1OC(=O)[C@@](C)(F)C(=O)[C@H](C)[C@@H](O[C@@H]2O[C@H](C)C[C@H](N(C)C)[C@H]2O)[C@](C)(OC)C[C@@H](C)C(=O)[C@H](C)[C@H]2N(CCCOC(=O)Nc3ccc4ccccc4c3)C(=O)O[C@]12C | < 0.03 µg/mL | 8 µg/mL (≈ 9.32 µM) | < 0.03 µg/mL | < 0.03 µg/mL | < 0.03 µg/mL | 0.5 µg/mL (≈ 0.583 µM) | < 0.03 µg/mL | < 0.03 µg/mL | < 0.03 µg/mL | 0.125 µg/mL (≈ 0.146 µM) | 16 µg/mL (≈ 18.6 µM) | 0.25 µg/mL (≈ 0.291 µM) | < 0.03 µg/mL | < 0.03 µg/mL | 18.5 µM | 16 µg/mL (≈ 18.6 µM) | < 0.03 µg/mL | < 0.03 µg/mL | < 0.03 µg/mL | 2 µg/mL (≈ 2.33 µM) | Ratio (Streptococcus pneumoniae [18]): <4; Ratio [19]: 4; Ratio [20]: 4; Ratio [21]: 4; Ratio [22]: 4; Ratio [23]: 4; Ratio (Streptococcus pneumoniae [24]): <4; Ratio [25]: 4; Ratio (Streptococcus pneumoniae [26]): <4
